Reference: publication PMC7697888, “Comprehensive Set of Tertiary Complex Structures and Palmitic Acid Binding Provide Molecular Insights into Ligand Design for RXR Isoforms” (International Journal of Molecular Sciences, 2020)

What was measured:
RXRα = molecular target: T1, RXRα (Homo sapiens, UniProt P19793); assay: Gal4 hybrid reporter gene assay RXRα; format: cell-based; conditions: HEK293T; at 100 µM concentrations and above
T1 construct: pFA-CMV-hRXRα-LBD (NR2B1, UniProt entry: P19793, aa 225–462); expressed in transfected cells; host or cells: HEK293T
T1 sequence (P19793 225-462): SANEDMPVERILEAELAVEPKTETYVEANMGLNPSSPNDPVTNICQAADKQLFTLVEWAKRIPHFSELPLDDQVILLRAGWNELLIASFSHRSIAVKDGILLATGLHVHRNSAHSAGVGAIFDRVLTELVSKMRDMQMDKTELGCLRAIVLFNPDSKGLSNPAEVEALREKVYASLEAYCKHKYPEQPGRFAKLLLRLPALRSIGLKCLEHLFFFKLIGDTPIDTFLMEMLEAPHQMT
Procedure: (§1) The Gal4 hybrid reporter gene assays for RXRα, RXRβ and RXRγ were performed as described previously using the Gal4-fusion receptor plasmids pFA-CMV-hRXRα-LBD (NR2B1, UniProt entry: P19793, aa 225–462), pFA-CMV-hRXRβ-LBD (NR2B2, UniProt entry: P28702-1, aa 294–533) and pFA-CMV-hRXRγ-LBD (NR2B3, UniProt entry: P48443-1, aa 229–463), which code for the hinge region and LBD of the canonical RXR isoform. pFR-Luc (Stratagene, San Diego, CA, USA) as the reporter plasmid and pRL-SV40 (Promega, Madison, WI, USA) as the internal control were used. HEK293T cells were grown in DMEM high-glucose medium (supplemented with 10% fetal calf serum (FCS), sodium pyruvate (1 mM), penicillin (100 U/mL) and streptomycin (100 μg/mL)) at 37 °C and 5% CO2, and seeded in 96-well plates (3.0 × 10^4 cells/well) on the day before transfection. Right before transfection, medium was changed to Opti-MEM without supplements and cells were transiently transfected using the Lipofectamine LTX reagent (Invitrogen, Carlsbad, CA, USA) according to the manufacturer’s protocol with pFR-Luc (Stratagene), pRL-SV40 (Promega) and the respective pFA-CMV-hRXR-LBD clone. After 5 h of incubation, medium was changed to Opti-MEM (supplemented with penicillin (100 U/mL) and streptomycin (100 μg/mL)) additionally containing 0.1% DMSO and the respective test compounds or 0.1% DMSO alone as the untreated control. After overnight incubation (12–14 h), cells were assayed for luciferase activity using the Dual-Glo luciferase assay system (Promega) according to the manufacturer’s protocol on a Tecan Spark M10 luminometer (Tecan Deutschland GmbH, Crailsheim, Germany). Each sample was tested in at least three biologically independent repeats in duplicates. Data were normalized for transfection efficiency and cell growth by division of firefly luciferase data by Renilla luciferase data and multiplying by 1000 to obtain relative light units (RLUs). Fold activation denotes the mean RLU of test compounds at a respective concentration divided by the mean RLU of untreated control. […]

RXR = assay: Gal4 hybrid reporter gene assays, competition with bexarotene / antagonist UVI3003 (isoform not specified); format: cell-based, human; conditions: bexarotene 0.1 µM or 1 µM; for effect on bexarotene-induced RXR activation, low concentration: fatty acid 10 µM; for effect on bexarotene-induced RXR activation, higher concentration: fatty acid 100 µM, not statistically significant for all fatty acids on all isoforms
Procedure: as §1

Row | SMILES | RXRα activation in Gal4 hybrid reporter gene assay (RXRα) | effect on bexarotene-induced RXR activation, low concentration (RXR) | effect on bexarotene-induced RXR activation, higher concentration (RXR)
1 | CCCCCCCCCCCCCC(=O)O [MA, myristic acid] | activated | tendency to further promote RXR activation | weak competitive behavior
2 | CCCCCCCCCCCCCCCCCC(=O)O [SA, stearic acid] | activated | tendency to further promote RXR activation | weak competitive behavior
3 | CCCCCCCCCCCCCCCC(=O)O [PA, palmitic acid] | activated | tendency to further promote RXR activation | weak competitive behavior
